Experimental data as given in patent publication US20100286280A1, “INHIBITORS OF EPPIN/SEMENOGELIN BINDING AS MALE CONTRACEPTIVES” (The University of North Carolina at Chapel Hill, priority 2007, published 2010).
Entries after “also recorded” stand apart in the source; their conditions may differ.

Legend:
[1] = target: T1, recombinant Eppin binding to recombinant semenogelin (Homo sapiens, UniProt O95925); assay: Eppin-semenogelin in vitro binding assay (96-well ELISA format, absorption at 450 nm); conditions: Eppin preincubated with compound dilutions starting at 40 μg/ml; OD 450 nm (FIG. 4)
T1 construct: made in house; host or cells: E. coli strain M15 [pREP-4]
T1 sequence (O95925 22-133): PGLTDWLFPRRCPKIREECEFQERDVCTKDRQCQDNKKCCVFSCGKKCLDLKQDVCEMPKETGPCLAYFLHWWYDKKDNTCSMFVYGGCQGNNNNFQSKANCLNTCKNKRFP
Experimental: In one embodiment, His-tagged recombinant semenogelin is bound to the individual wells of the plate, FLAG-tagged recombinant Eppin is bound to the semenogelin. The recombinant Eppin and recombinant semenogelin will form a complex. Compounds are then individually added to the wells of the plate and allowed to interfere with the Eppin-semenogelin complex formation. An anti-FLAG antibody (such as the M2 antibody sold by Sigma-Aldrich) is then added to the wells of the plate. The inhibition of the binding of Eppin to semenogelin is determined by looking for changes in Eppin-semenogelin binding when the anti-FLAG antibody (such as those used in commercially-available ELISA assays) is added. One can detect the binding of the anti-FLAG antibody to the FLAG tagged Eppin, for example, by looking at the absorption at 450 nm. In another embodiment, compounds are incubated with FLAG-tagged recombinant Eppin before being added to Sg. The anti-FLAG antibody is added after the Eppin-compound mixtures are added to the wells of the plate.
Recombinant Eppin and semenogelin are as described in Wang et al., Biology of Reproduction, 72:1064-1070 (2005). The recombinant Eppin used in the assays described herein has been tagged with a FLAG tag. The recombinant semenogelin is a His-tagged recombinant protein of the fragment of semenogelin starting with amino acid 164 and continuing to amino acid 283. […]

human spermatozoa = assay: Human sperm motility assay with Compound A4; type: cell-based
Description: Human spermatozoa were obtained from the UNC-Hospital clinic, washed and used for testing in a motility assay. Compound A4 reduced the total number of motile sperm in an ejaculate to <10% within one hour. The data are shown below in FIGS. 5 and 6, and in Tables 2 and 3.

With `Cl.NC(=O)CNCC(N)=O` [Compound A4] the “inhibition of Eppin-semenogelin binding” value [1] was “effective at inhibiting this binding in a dose dependent manner; also recorded: inhibited Eppin-semenogelin binding in a dose dependent manner”, the Velocity (human spermatozoa; Table 2, swim up + A4 + 1 hr) was 15 μm/sec and the total distance (human spermatozoa; Table 2, swim up + A4 + 1 hr) was 222 μm. The “% Motility” value (human spermatozoa; Table 3, swim up + 1 hour) was 7%, the Average velocity (human spermatozoa; Table 3, swim up + 1 hour) was 14.9 μm/sec and the Distance (human spermatozoa; Table 3, swim up + 1 hour) was 222 μm. The Straight distance (human spermatozoa; Table 3, swim up + 1 hour) was 48.7 μm, the “inhibition of sperm motility (in words)” value (human spermatozoa; human spermatozoa) was “inhibits their motility, significantly reducing their forward velocity and distance traveled; also recorded: effective at inhibiting sperm motility” and the “total number of motile sperm in an ejaculate” value (human spermatozoa; within one hour) was less than 10%.
